Data taken from ChEMBL document CHEMBL4613212, “Insights of synthetic analogues of anti-leprosy agents” (Bioorg Med Chem, 2019).

Experiments:
Mycobacterium leprae [1] = assay: Anti-leprotic activity against rifampin-susceptible Mycobacterium leprae infected in BALB/c mouse assessed as ATP level per 10^6 Mycobacterium leprae in footpad at 6 mg/kg administered with food daily for 12 weeks by Shepard's kinetic method (reference value: 26.9 +/- 2.90 pg); type: functional
Mycobacterium leprae [2] = assay: Anti-leprotic activity against rifampin-susceptible Mycobacterium leprae infected in armadillo assessed as bacterial counts in footpad at 6 mg/kg administered with food daily for 12 weeks (reference value: 190%); type: functional
Mycobacterium leprae [3] = assay: Anti-leprotic activity against rifampin-susceptible Mycobacterium leprae infected in BALB/c mouse assessed as ATP level per 10^6 Mycobacterium leprae in footpad at 6 mg/kg administered with food daily for 8 weeks by Shepard's kinetic method (reference value: 26.1 +/- 3.7 pg); type: functional
Mycobacterium leprae [4] = assay: Anti-leprotic activity against rifampin-susceptible Mycobacterium leprae infected in BALB/c mouse assessed as ATP level per 10^6 Mycobacterium leprae in footpad at 6 mg/kg administered with food daily for 16 weeks by Shepard's kinetic method (reference value: 27.9 +/- 3.60 pg); type: functional
Mycobacterium leprae [5] = assay: Anti-leprotic activity against rifampin-susceptible Mycobacterium leprae infected in armadillo assessed as bacterial counts in footpad at 6 mg/kg administered with food daily for 16 weeks (reference value: 226%); type: functional
Mycobacterium leprae [6] = assay: Anti-leprotic activity against rifampicin-susceptible Mycobacterium leprae subcultures at 4 weeks assessed as ATP level per 10^7 cells at 0.3 mg/L measured by bioluminescence assay (reference value: 425 +/- 64 pg); type: functional
Mycobacterium leprae [7] = assay: Anti-leprotic activity against rifampicin-susceptible Mycobacterium leprae primary cultures at 4 weeks assessed as ATP level per 10^7 cells at 0.2 mg/L measured by bioluminescence assay (reference value: 332 +/- 46 pg); type: functional
Mycobacterium leprae [8] = assay: Anti-leprotic activity against rifampicin-susceptible Mycobacterium leprae subcultures at 4 weeks assessed as [3H]thymidine uptake per 5 times 10^7 cells at 0.3 mg/L incubated for 24 hrs (reference value: 1.41 +/- 0.20 pmol); type: functional
[9] = Plasma concentration in rifampin-susceptible Mycobacterium leprae infected in BALB/c mouse at 6 mg/kg administered with food daily for 1 week by high-pressure liquid chromatography analysis; type: ADME, organism-based; conditions: po
Mycobacterium leprae [10] = assay: Anti-leprotic activity against rifampicin-susceptible Mycobacterium leprae primary cultures at 4 weeks assessed as [3H]thymidine uptake per 5 times 10^7 cells at 0.2 mg/L incubated for 24 hrs (reference value: 1.05 +/- 0.16 pmol); type: functional
Mycobacterium leprae [11] = assay: Anti-leprotic activity against rifampin-susceptible Mycobacterium leprae infected in armadillo assessed as bacterial counts in footpad at 6 mg/kg administered with food daily for 2 weeks (reference value: 125%); type: functional
Mycobacterium leprae [12] = assay: Anti-leprotic activity against rifampicin-susceptible Mycobacterium leprae subcultures at 4 weeks assessed as ATP level per 10^7 cells at 0.1 mg/L measured by bioluminescence assay (reference value: 425 +/- 64 pg); type: functional
Mycobacterium leprae [13] = assay: Anti-leprotic activity against rifampin-susceptible Mycobacterium leprae infected in BALB/c mouse assessed as ATP level in footpad at 6 mg/kg administered with food daily for 2 weeks by Shepard's kinetic method (reference value: 109%); type: functional
[14] = Plasma concentration in rifampin-susceptible Mycobacterium leprae infected in BALB/c mouse at 6 mg/kg administered with food daily for 2 weeks by high-pressure liquid chromatography analysis; type: ADME, organism-based; conditions: po
Mycobacterium leprae [15] = assay: Anti-leprotic activity against rifampicin-susceptible Mycobacterium leprae subcultures at 4 weeks assessed as [3H]thymidine uptake per 5 times 10^7 cells at 0.2 mg/L incubated for 24 hrs (reference value: 1.41 +/- 0.20 pmol); type: functional
Mycobacterium leprae [16] = assay: Anti-leprotic activity against rifampin-susceptible Mycobacterium leprae infected in armadillo assessed as bacterial counts in footpad at 6 mg/kg administered with food daily for 4 weeks (reference value: 141%); type: functional
Mycobacterium leprae [17] = assay: Anti-leprotic activity against rifampicin-susceptible Mycobacterium leprae primary cultures at 4 weeks assessed as ATP level per 10^7 cells at 0.1 mg/L measured by bioluminescence assay (reference value: 332 +/- 46 pg); type: functional
Mycobacterium leprae [18] = assay: Anti-leprotic activity against rifampicin-susceptible Mycobacterium leprae subcultures at 4 weeks assessed as [3H]thymidine uptake per 5 times 10^7 cells at 0.1 mg/L incubated for 24 hrs (reference value: 1.41 +/- 0.20 pmol); type: functional
[19] = Plasma concentration in rifampin-susceptible Mycobacterium leprae infected in BALB/c mouse at 6 mg/kg administered with food daily for 12 weeks by high-pressure liquid chromatography analysis; type: ADME, organism-based; conditions: po
Mycobacterium leprae [20] = assay: (§1) Inhibition of PGL1 synthesis in Mycobacterium leprae infected Swiss Webster mouse macrophages assessed as decrease in [U-14C]PA incorporation at 2 uM preincubated for 4 days post infection followed by [U-14C]PA addition and measured after 7 days by liquid scintillation counter analysis relative to control; type: functional
[21] = Plasma concentration in rifampin-susceptible Mycobacterium leprae infected in BALB/c mouse at 6 mg/kg administered with food daily for 8 weeks by high-pressure liquid chromatography analysis; type: ADME, organism-based; conditions: po
[22] = Plasma concentration in rifampin-susceptible Mycobacterium leprae infected in BALB/c mouse at 6 mg/kg administered with food daily for 4 weeks by high-pressure liquid chromatography analysis; type: ADME, organism-based; conditions: po
Mycobacterium leprae [23] = assay: Anti-leprotic activity against rifampicin-susceptible Mycobacterium leprae primary cultures at 4 weeks assessed as [3H]thymidine uptake per 5 times 10^7 cells at 0.3 mg/L incubated for 24 hrs (reference value: 1.05 +/- 0.16 pmol); type: functional
Mycobacterium leprae [24] = assay: Anti-leprotic activity against rifampin-susceptible Mycobacterium leprae infected in BALB/c mouse assessed as ATP level in footpad at 6 mg/kg administered with food daily for 1 week by Shepard's kinetic method (reference value: 102%); type: functional
Mycobacterium leprae [25] = assay: Anti-leprotic activity against rifampicin-susceptible Mycobacterium leprae primary cultures at 4 weeks assessed as ATP level per 10^7 cells at 0.3 mg/L measured by bioluminescence assay (reference value: 332 +/- 46 pg); type: functional
Mycobacterium leprae [26] = assay: Anti-leprotic activity against rifampicin-susceptible Mycobacterium leprae primary cultures at 4 weeks assessed as [3H]thymidine uptake per 5 times 10^7 cells at 0.1 mg/L incubated for 24 hrs (reference value: 1.05 +/- 0.16 pmol); type: functional
Mycobacterium leprae [27] = assay: Anti-leprotic activity against rifampin-susceptible Mycobacterium leprae infected in BALB/c mouse assessed as ATP level in footpad at 6 mg/kg administered with food daily for 4 weeks by Shepard's kinetic method (reference value: 98%); type: functional
Mycobacterium leprae [28] = assay: Anti-leprotic activity against rifampin-susceptible Mycobacterium leprae infected in armadillo assessed as bacterial counts in footpad at 6 mg/kg administered with food daily for 8 weeks (reference value: 162%); type: functional
Mycobacterium leprae [29] = assay: Anti-leprotic activity against rifampicin-susceptible Mycobacterium leprae subcultures at 4 weeks assessed as ATP level per 10^7 cells at 0.2 mg/L measured by bioluminescence assay (reference value: 425 +/- 64 pg); type: functional
Mycobacterium leprae [30] = assay: as §1, with “0.2” for “2”; type: functional
Mycobacterium leprae [31] = assay: Anti-leprotic activity against rifampin-susceptible Mycobacterium leprae infected in armadillo assessed as bacterial counts in footpad at 6 mg/kg administered with food daily for 1 week (reference value: 110%); type: functional
Mycobacterium leprae [32] = assay: Antimicrobial activity against Mycobacterium leprae assessed as fractional inhibitory concentration index at 0.375 ug/ml in presence of 0.0125 ug/ml KRM-1648 measured at 4 weeks; type: functional
Mycobacterium leprae [33] = assay: Antimicrobial activity against Mycobacterium leprae assessed as microbial growth at 0.375 ug/ml in presence of 0.025 ug/ml rifabutin measured at 4 weeks (reference value: 147 +/- 19.1%); type: functional
Mycobacterium leprae [34] = assay: Antimicrobial activity against Mycobacterium leprae assessed as microbial growth at 0.375 ug/ml in presence of 0.0062 ug/ml KRM-1648 measured at 4 weeks (reference value: 147 +/- 19.1%); type: functional
Mycobacterium leprae [35] = assay: Antimicrobial activity against Mycobacterium leprae assessed as microbial growth at 0.375 ug/ml in presence of 0.05 ug/ml rifabutin measured at 4 weeks (reference value: 147 +/- 19.1%); type: functional
Mycobacterium leprae [36] = assay: Antimicrobial activity against Mycobacterium leprae assessed as microbial growth at 0.375 ug/ml in presence of 0.0125 ug/ml KRM-1648 measured at 4 weeks (reference value: 147 +/- 19.1%); type: functional
Mycobacterium leprae [37] = assay: Antimicrobial activity against Mycobacterium leprae assessed as microbial growth at 0.75 ug/ml in presence of 0.1 ug/ml rifampin measured at 4 weeks (reference value: 147 +/- 19.1%); type: functional
Mycobacterium leprae [38] = assay: Antimicrobial activity against Mycobacterium leprae assessed as microbial growth at 0.75 ug/ml in presence of 0.2 ug/ml rifampin measured at 4 weeks (reference value: 147 +/- 19.1%); type: functional
Mycobacterium leprae [39] = assay: Antimicrobial activity against Mycobacterium leprae assessed as fractional inhibitory concentration index at 0.75 ug/ml in presence of 0.2 ug/ml rifampin measured at 4 weeks; type: functional
Mycobacterium leprae [40] = assay: Antimicrobial activity against Mycobacterium leprae assessed as fractional inhibitory concentration index at 0.375 ug/ml in presence of 0.05 ug/ml rifabutin measured at 4 weeks; type: functional

`CO[C@H]1/C=C/O[C@@]2(C)Oc3c(C)c(O)c4c(c3C2=O)C2=NC3(CCN(CC(C)C)CC3)NC2=C(NC(=O)/C(C)=C\C=C\[C@H](C)[C@H](O)[C@@H](C)[C@@H](O)[C@@H](C)[C@H](OC(C)=O)[C@@H]1C)C4=O` [RIFABUTIN] gave an Activity (Mycobacterium leprae [1]) of 0 pg, an Activity (Mycobacterium leprae [2]) of 83% and an Activity (Mycobacterium leprae [3]) of 0.049 pg. For the same compound, the Activity (Mycobacterium leprae [4]) was 0 pg, the Activity (Mycobacterium leprae [5]) was 77% and the Activity (Mycobacterium leprae [6]) was 0 pg. It also gave an Activity (Mycobacterium leprae [7]) of 0 pg, an Activity (Mycobacterium leprae [8]) of 0 pmol and a concentration at 168 h [9] of 380 ng/mL. The Activity (Mycobacterium leprae [10]) was 0 pmol, the Activity (Mycobacterium leprae [11]) was 98% and the Activity (Mycobacterium leprae [12]) was 127 pg. It also gave an Activity (Mycobacterium leprae [13]) of 21%, a concentration at 336 h [14] of 450 ng/mL and an Activity (Mycobacterium leprae [15]) of 0.49 pmol. For the same compound, the Activity (Mycobacterium leprae [16]) was 94%, the Activity (Mycobacterium leprae [17]) was 192 pg and the Activity (Mycobacterium leprae [18]) was 0 pmol. The concentration at 2016 h [19] was 90 ng/mL, the inhibition at 2 µM (Mycobacterium leprae [20]) was 96% and the concentration at 1344 h [21] was 52 ng/mL. The concentration at 672 h [22] was 510 ng/mL, the Activity (Mycobacterium leprae [23]) was 0 pmol and the Activity (Mycobacterium leprae [24]) was 72%. It also gave an Activity (Mycobacterium leprae [25]) of 0 pg, an Activity (Mycobacterium leprae [26]) of 0.65 pmol and an Activity (Mycobacterium leprae [27]) of 9%. It also gave an Activity (Mycobacterium leprae [28]) of 89%, an Activity (Mycobacterium leprae [29]) of 0 pg and an inhibition at 0.2 µM (Mycobacterium leprae [30]) of 84%. For the same compound, the Activity (Mycobacterium leprae [31]) was 101%.
In the case of `CC1COc2c(N3CCN(C)CC3)c(F)cc3c(=O)c(C(=O)O)cn1c23` (stereo not given) [OFLOXACIN], the “fractional inhibitory concentration index (FICI)” value (Mycobacterium leprae [32]) is reported as 0.5, the Activity (Mycobacterium leprae [33]) is reported as 121% and the Activity (Mycobacterium leprae [34]) is reported as 124%. The Activity (Mycobacterium leprae [35]) was 0%, the Activity (Mycobacterium leprae [36]) was 0% and the Activity (Mycobacterium leprae [37]) was 72%. For the same compound, the Activity (Mycobacterium leprae [38]) was 0%, the “fractional inhibitory concentration index (FICI)” value (Mycobacterium leprae [39]) was 1 and the “fractional inhibitory concentration index (FICI)” value (Mycobacterium leprae [40]) was 0.5.
